According to ChEMBL document CHEMBL1201862, “PubChem BioAssay data set” (2004):
The source made the active and inactive calls.

Key:
[1] = target: T1, G-protein coupled receptor 35 (Homo sapiens, UniProt Q9HC97); test: SAR Analysis for the identification of Selective Antagonists of ERK1/2 Activity in GPR35-Overexpressing U2OS Cells. [Related pubchem assays: 2079, 2058 ]; format: functional, cell-based
[2] = target: T1, G-protein coupled receptor 35; test: GPR35 antagonists blocking zaprinast-driven arrestin recruitment, primary screen, imaging, U2OS, beta-arrestin-GFP, zaprinast agonist (AID 2058); format: functional;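 also: antagonist potency meaning inhibition of agonist-induced arrestin redistribution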
[3] = target: G-protein coupled receptor 55 (Homo sapiens, UniProt Q9Y2T6); test: GPR55 antagonists, SAR follow-up, counter-screen for GPR35 antagonist project, imaging, image-based (AID 2397); format: functional
Chain of G-protein coupled receptor 55 (Q9Y2T6 whole entry): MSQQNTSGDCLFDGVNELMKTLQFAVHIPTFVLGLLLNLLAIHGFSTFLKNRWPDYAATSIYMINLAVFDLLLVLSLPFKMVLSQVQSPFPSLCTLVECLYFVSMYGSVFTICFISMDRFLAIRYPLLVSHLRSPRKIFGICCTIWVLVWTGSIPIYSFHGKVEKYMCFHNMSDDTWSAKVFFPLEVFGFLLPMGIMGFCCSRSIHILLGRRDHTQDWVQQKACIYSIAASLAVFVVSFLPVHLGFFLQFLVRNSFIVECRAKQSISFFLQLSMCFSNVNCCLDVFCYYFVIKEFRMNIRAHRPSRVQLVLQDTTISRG

BJ [4] = test: cells; format: functional, cell-based; details: Homo sapiens
[5] = HepG2 cell cytotoxicity, dose response, cytotoxicity control for Shn3 inhibitor project, CellTiter-Glo, cherry-picked (AID 624134); format: functional, cell-based
[6] = nonselective inhibitors of cellular cAMP signaling, dose response, counter-screen for MC4R biased antagonist project, cell-based, TR-FRET cAMP detection (AID 602305); format: functional;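 also: U2OS cells stimulated with forskolin near its EC80 as the cAMP inducer; potency is for inhibition of forskolin-stimulated cAMP signaling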
Jurkat = test: antigen receptor-induced NF-kB inhibitors, dose response, Jurkat, luciferase reporter, luminescence, B- and T-cell (AID 489004); format: functional, cell-based; details: Homo sapiens;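 also: NF-kB luciferase reporter Jurkat cells stimulated with PMA plus ionomycin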
[7] = Shn3 3'UTR reporter inhibitors, dose response, cell-based, Clone20 osteoblasts, firefly luciferase, cherry-picked (AID 624132); format: functional;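 also: firefly luciferase luminescence from reporter carrying the Shn3 3'UTR in osteoblasts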
[8] = cytotoxicity toward DRD oncogenic fibroblasts, dose response, cell-based, non-viral oncogenic, luminescence (AID 1934); format: functional; details: Homo sapiens
[9] = miR-122 activators in hepatoma reporter cells, dose response, cell-based, Huh7 psiCHECK-miR122, Renilla luciferase, cherry-picked (AID 651956); format: functional;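 also: huh7 hepatoma cells stably carrying a psiCHECK-2 miR-122 sensor plasmid; renilla luciferase signal reporting endogenous miR-122 activity after 48 h compound exposure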
Melanocortin receptor 4 = Melanocortin receptor 4 (Homo sapiens, UniProt P32245); test: MC4R antagonist potency on cAMP, dose response, cell-based, TR-FRET, biased antagonists (AID 602298); format: functional;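 also: antagonist potency against agonist-stimulated cAMP production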
Chain of Melanocortin receptor 4 (P32245 whole entry): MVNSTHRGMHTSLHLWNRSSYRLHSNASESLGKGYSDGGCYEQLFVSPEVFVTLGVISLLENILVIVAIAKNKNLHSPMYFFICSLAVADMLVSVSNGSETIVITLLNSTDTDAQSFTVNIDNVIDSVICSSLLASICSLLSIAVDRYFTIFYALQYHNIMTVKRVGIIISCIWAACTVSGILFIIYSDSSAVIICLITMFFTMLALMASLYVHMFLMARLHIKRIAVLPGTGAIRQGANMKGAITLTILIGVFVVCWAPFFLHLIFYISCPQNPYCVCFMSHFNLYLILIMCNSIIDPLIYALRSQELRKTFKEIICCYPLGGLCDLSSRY

BJ [10] = test: cytotoxicity toward BJ-TERT fibroblasts, dose response, cell-based, RAS-independent, luminescence (AID 1933); format: functional; details: Homo sapiens
[11] = inhibitors of PGC1a acetylation in cells, dose response, cell-based, cherry-picked samples (AID 720514); format: functional;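 also: potency may reflect raised or lowered acetylation signal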
[12] = HEK293T cytotoxicity, dose response, cytotoxicity control for miR-122 modulator project, cell-based, inhibitor set, cherry-pick, set 2 (AID 720697); format: functional
[13] = HEK293T cytotoxicity, dose response, cytotoxicity control for miR-122 modulator project, cell-based, activator set, cherry-pick (AID 720690); format: functional;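 also: HEK293T human cells scored for general mammalian cytotoxicity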
BJ [14] = test: cytotoxicity toward BJ-TERT-LT-ST fibroblasts, dose response, cell-based, RAS-independent, luminescence (AID 1935); format: functional; details: Homo sapiens;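 also: BJ fibroblasts immortalized with TERT plus LT and ST oncogenes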
A-375 = test: A375 melanoma cell viability reduction, dose response, counter-screen for MITF modulator project, cherry-pick samples, set 2 (AID 540335); format: functional, cell-based; details: Homo sapiens
[15] = target: T2, Microphthalmia-associated transcription factor (Homo sapiens, UniProt O75030); test: TRPM1 promoter luciferase signal decrease, dose response, MITF inhibitor project, cell-based, SK-MEL-5, cherry-picked, set 3 (AID 493073); format: functional
T2 sequence (O75030 whole entry): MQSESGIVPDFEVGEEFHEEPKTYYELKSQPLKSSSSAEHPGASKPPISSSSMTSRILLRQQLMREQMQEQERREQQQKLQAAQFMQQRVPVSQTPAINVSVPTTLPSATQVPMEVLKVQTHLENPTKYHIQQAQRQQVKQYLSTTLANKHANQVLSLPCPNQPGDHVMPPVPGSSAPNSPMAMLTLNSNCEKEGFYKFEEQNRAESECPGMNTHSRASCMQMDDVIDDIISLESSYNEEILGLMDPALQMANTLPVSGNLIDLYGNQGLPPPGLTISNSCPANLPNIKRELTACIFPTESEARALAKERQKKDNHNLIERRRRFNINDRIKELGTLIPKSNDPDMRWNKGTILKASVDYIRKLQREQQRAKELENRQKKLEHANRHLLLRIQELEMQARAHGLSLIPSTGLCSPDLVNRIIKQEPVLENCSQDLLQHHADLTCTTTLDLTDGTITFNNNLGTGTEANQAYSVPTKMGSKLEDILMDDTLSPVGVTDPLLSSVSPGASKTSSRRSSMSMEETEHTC

[16] = cytotoxicity in HEK-293T NF-kB-Luc cells, dose response, cytotoxicity control for B/T-cell NF-kB inhibitor project, cell-based, uHTS hits (AID 489019); format: functional;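 also: IC50 reflects cytotoxicity as loss of cell viability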
[17] = control 3'UTR Renilla luciferase suppression, dose response, counter-screen for Shn3 inhibitor project, cell-based, Clone20-Shn3RL, cherry-picked (AID 624133); format: functional
[18] = target: Lysine-specific demethylase 4A (Homo sapiens, UniProt O75164); test: JMJD2A histone demethylase inhibitors, dose response, selectivity assay for GASC-1 inhibitor project, biochemical, DELFIA europium, cherry-picked samples (AID 488840)
Chain of Lysine-specific demethylase 4A (O75164 whole entry): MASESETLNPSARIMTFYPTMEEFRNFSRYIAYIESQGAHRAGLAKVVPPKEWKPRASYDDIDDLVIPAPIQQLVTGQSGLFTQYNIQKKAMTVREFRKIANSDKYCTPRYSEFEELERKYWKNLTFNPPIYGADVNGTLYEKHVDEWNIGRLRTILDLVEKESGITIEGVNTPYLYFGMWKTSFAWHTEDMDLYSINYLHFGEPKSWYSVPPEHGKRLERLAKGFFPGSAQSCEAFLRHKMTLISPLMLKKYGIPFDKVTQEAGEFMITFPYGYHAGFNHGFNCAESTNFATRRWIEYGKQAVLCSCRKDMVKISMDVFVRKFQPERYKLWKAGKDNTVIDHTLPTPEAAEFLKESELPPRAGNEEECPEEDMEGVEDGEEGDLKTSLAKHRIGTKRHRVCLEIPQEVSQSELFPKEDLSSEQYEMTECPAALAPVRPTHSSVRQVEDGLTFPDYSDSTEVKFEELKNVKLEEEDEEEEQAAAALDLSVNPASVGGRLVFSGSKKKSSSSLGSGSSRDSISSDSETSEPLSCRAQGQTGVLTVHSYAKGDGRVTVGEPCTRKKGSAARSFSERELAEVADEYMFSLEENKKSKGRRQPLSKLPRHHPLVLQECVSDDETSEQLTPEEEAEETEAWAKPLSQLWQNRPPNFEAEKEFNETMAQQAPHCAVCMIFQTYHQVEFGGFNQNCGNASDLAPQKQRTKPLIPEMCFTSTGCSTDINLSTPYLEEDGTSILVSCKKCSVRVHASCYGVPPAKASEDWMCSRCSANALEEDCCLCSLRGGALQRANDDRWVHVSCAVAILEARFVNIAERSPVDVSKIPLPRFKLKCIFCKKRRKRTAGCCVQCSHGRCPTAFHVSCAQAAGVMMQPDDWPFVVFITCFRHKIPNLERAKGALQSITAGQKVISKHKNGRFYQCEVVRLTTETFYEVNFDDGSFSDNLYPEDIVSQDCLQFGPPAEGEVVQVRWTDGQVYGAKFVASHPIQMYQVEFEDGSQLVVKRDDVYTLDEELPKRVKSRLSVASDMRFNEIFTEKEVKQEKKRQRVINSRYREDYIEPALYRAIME

Phospholipase D2 = Phospholipase D2 (Homo sapiens, UniProt O14939); test: PLD2 inhibitor potency in cells, dose response (AID 602147); format: functional;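 also: cellular assay in HEK293 cells overexpressing GFP-tagged PLD2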
Chain of Phospholipase D2 (O14939 whole entry): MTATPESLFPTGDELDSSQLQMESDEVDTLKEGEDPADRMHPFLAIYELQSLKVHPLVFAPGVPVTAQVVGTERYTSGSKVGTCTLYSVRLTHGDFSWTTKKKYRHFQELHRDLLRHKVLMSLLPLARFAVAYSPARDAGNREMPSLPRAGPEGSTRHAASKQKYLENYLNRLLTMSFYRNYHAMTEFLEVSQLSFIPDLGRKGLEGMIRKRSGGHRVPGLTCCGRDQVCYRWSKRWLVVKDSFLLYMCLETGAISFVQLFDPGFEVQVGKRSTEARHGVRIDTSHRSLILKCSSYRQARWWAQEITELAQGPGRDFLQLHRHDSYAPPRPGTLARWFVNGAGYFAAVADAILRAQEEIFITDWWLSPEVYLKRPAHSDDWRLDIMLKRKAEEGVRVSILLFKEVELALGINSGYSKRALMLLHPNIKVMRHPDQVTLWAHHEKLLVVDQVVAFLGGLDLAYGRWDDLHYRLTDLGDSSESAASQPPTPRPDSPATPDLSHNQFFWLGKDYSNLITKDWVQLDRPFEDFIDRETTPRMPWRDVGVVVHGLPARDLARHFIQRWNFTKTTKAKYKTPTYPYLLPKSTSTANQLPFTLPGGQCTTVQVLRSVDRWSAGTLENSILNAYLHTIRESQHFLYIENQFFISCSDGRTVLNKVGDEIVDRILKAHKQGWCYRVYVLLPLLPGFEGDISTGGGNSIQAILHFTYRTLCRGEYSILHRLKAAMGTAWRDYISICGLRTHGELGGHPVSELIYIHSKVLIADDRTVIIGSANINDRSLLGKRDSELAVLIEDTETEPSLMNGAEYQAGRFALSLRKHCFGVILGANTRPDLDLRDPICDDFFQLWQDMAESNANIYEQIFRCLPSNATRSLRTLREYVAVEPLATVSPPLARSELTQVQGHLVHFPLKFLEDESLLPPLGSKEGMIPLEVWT

Caspase-6 = target: T3, Caspase-6 (Homo sapiens, UniProt P55212); test: human caspase-6 inhibitors, dose response, biochemical, VEID-R110 fluorescence, cherry-pick (AID 720632)
T3 sequence (P55212 whole entry): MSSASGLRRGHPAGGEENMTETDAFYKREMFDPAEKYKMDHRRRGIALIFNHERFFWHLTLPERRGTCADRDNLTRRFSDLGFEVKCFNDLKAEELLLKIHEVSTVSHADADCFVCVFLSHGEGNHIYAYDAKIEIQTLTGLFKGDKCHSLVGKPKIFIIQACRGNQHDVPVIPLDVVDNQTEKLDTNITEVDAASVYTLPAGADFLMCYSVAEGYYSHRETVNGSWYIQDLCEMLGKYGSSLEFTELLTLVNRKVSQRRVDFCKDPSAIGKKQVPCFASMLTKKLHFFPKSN

[19] = target: T4, Intestinal-type alkaline phosphatase (Homo sapiens, UniProt P09923); test: human intestinal alkaline phosphatase activators, dose response, biochemical, luminescence, uHTS hits (AID 463120); format: functional
T4 sequence (P09923 whole entry): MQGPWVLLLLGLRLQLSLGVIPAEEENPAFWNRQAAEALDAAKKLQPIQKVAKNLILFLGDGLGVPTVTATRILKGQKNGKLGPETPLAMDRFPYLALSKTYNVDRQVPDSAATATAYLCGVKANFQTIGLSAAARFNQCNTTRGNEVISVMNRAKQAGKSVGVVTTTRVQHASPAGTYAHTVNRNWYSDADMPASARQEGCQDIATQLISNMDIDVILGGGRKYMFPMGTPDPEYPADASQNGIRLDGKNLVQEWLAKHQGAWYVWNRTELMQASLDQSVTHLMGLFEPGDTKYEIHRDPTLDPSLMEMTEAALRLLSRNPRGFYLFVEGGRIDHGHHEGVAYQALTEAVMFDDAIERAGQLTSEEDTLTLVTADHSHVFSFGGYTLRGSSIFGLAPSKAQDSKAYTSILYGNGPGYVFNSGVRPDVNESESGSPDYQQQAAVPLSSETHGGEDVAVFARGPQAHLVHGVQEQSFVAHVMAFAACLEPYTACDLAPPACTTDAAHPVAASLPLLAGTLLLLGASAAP

[20] = target: T4, Intestinal-type alkaline phosphatase; test: human IAP activators, dose response, biochemical, luminescent, uHTS hits, set 2 (AID 488817); format: functional;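 also: potency of activators that raise enzyme activity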
[21] = target: T5, Alkaline phosphatase, tissue-nonspecific isozyme (Homo sapiens, UniProt P05186); test: TNAP enzyme activators, dose response, selectivity assay for human IAP activator project, biochemical, TNAP isozyme, human IAP uHTS hits (AID 488886); format: functional;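 also: potency of compounds raising TNAP activity as a selectivity check on IAP activators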
T5 sequence (P05186 whole entry): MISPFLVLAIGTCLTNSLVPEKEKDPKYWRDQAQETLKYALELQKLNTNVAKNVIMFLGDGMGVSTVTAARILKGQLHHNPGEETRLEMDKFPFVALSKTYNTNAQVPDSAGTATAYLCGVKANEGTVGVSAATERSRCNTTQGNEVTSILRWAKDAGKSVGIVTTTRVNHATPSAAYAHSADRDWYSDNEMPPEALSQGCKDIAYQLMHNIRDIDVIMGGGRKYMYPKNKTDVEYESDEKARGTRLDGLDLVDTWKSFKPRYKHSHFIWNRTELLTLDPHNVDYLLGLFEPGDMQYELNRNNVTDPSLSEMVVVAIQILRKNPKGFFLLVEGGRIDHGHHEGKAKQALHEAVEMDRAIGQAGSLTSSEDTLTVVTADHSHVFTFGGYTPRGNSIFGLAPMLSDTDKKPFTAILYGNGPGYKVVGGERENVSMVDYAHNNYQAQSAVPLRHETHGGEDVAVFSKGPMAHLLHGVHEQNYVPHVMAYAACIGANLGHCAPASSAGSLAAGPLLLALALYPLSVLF

[22] = target: Intestinal-type alkaline phosphatase (Mus musculus, UniProt P24822); test: PubChem AID 488874; format: functional
Chain of Intestinal-type alkaline phosphatase (Mus musculus, UniProt P24822) (P24822 whole entry): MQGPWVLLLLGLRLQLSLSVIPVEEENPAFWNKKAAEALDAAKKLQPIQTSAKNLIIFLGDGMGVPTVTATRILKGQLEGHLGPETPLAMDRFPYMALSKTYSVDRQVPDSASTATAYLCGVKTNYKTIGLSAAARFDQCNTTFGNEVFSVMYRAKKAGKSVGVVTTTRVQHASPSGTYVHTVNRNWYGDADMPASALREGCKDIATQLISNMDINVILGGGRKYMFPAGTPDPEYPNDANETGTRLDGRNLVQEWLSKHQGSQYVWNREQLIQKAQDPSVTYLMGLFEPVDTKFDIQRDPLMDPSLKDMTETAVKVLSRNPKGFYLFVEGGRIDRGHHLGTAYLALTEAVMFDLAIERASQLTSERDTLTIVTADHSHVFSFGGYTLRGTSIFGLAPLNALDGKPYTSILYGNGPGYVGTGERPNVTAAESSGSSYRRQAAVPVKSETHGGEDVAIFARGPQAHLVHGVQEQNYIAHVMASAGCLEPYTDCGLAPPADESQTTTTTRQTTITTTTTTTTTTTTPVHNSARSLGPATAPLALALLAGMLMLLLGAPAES

T1 sequence (Q9HC97 whole entry): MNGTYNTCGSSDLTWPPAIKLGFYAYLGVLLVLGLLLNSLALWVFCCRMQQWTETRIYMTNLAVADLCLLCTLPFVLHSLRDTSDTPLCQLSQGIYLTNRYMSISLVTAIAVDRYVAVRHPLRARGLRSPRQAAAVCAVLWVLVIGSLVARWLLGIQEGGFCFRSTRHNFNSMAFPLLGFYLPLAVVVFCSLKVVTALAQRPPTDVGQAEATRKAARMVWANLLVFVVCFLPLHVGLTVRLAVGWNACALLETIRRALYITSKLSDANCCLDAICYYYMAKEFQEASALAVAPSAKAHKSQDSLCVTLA

Structure (SMILES): CC(C)c1ccc(NC(=O)CSc2nc3ccsc3c(=O)n2Cc2ccc(C(=O)O)cc2)cc1
- IC50 [1]: 5.68 µM (active)
- IC50 [2]: 0.561 µM (active)
- IC50 [3]: 11.7 µM (inactive)

Structure (SMILES): C#CC(=O)N(c1ccc(OC)c(OC)c1)C(C(=O)NC1CCCC1)c1cccs1 (configuration not stated)
- EC50 (BJ [4]): 5.23 µM (inconclusive)
- AC50 [5]: 2.4 µM (active)
- IC50 [6]: > 64.6 µM (inactive)
- IC50 (Jurkat): 0.26 µM (active)
- AC50 [7]: 3.32 µM (active)
- EC50 [8]: 3.54 µM (active)
- AC50 [9]: 0.651 µM (active)
- IC50 (Melanocortin receptor 4): 2.51 µM (active)
- EC50 (BJ [10]): 0.171 µM (inconclusive)
- AC50 [11]: 3.18 µM (active)
- AC50 [12]: < 0.195 µM (active)
- AC50 [13]: < 0.195 µM (active)
- EC50 (BJ [14]): 7.04 µM (active)
- AC50 (A-375): 5.92 µM (active)
- AC50 [15]: 3.31 µM (active)
- IC50 [16]: 73 µM (inactive)
- AC50 [17]: 14.3 µM (active)

Structure (SMILES): CCOC(=O)CCCCCC(=O)Nc1ccc2c(c1)CC(=O)N([C@@H](C)CO)C[C@H](C)[C@@H](CN(C)C(=O)Nc1ccc3c(c1)OCO3)O2
- AC50 [18]: > 60 µM (inactive)

Structure (SMILES): Cc1cccc(C(=O)N[C@@H](C)CN2CCC3(CC2)C(=O)NCN3c2ccccc2)c1
- IC50 (Phospholipase D2): 20 µM (active)

Structure (SMILES): Cc1cccc(OCC(=O)NNC(=O)c2ccc3[nH]cnc3c2)c1
- AC50 (Caspase-6): 44 µM (active)
- EC50 [19]: 9.75 µM (active)
- EC50 [20]: 13.5 µM (active)
- EC50 [21]: 17.7 µM (active)
- IC50 [22]: > 100 µM (inactive)
